According to patent US20120006538A1, “METHOD FOR PRE-TREATMENT OF SUBTERRANEAN SITES ADJACENT TO WATER INJECTION WELLS” (E. I. DU PONT DE NEMOURS AND COMPANY, priority 2010, published 2012):

Assays:
[1] = Amine concentration in brine #2 over amine-coated core sand, titration with 1N HCl (Example 2); type: physicochemical; conditions: core sand in brine #2
Method: Helium was used as the carrier gas.
38 milligrams (mg) of N N-Dimethyl-1-Dodecanamine (hereafter referred to as “the amine”) was added to 10.210 gr of Pentane. This solution was added to 10.1845 gr of specific sand layers (Oa and Ob) obtained from the Schrader Bluff formation of the Milne Point Unit of the Alaskan North slope. The oil content of the sand was first removed using a mixture of methanol and toluene (50/50, volume/volume) as solvent washes. The solvent mixture was subsequently evaporated off the core sand to produce clean, dry, flowable core sand. This sand was mixed with the amine and pentane solution to produce a slurry. This slurry was thoroughly mixed and the pentane was evaporated off leaving the amine on the sand (hereafter referred to as sand/amine mixture). 100 ml of brine #2 (Table 3) was added to the sand/amine mixture to create the sand/amine/brine mixture. […] The fact that the amine was not detected underlined its strong binding to the sand particles. […] The data underlines the remarkable efficiency of an acid at ionizing and removing the amine from the sand.

[2] = Amine concentration in brine #2 over amine-coated core sand, titration with 10% acetic acid (Example 5); conditions: titration with 10 wt % acetic acid, core sand in brine #2
[3] = Amine concentration in brine #2 over amine-coated core sand, titration with 10% nitric acid (Example 4); conditions: titration with 10 wt % nitric acid, core sand in brine #2
Method: Concentration of amines, in media and water, were analyzed by gas chromatography (GC). An Agilent Model 5890 (Agilent, Wilmington, Del.), GC equipped with a […] and a split/splitless injector, a DB-FFAP column (30 meter length×0.32 millimeter (mm) depth×0.25 micrometer particle size). […] The system was calibrated using a sample of N,N-Dimethyl-1-Dodecaneamine (Aldrich). Helium was used as the carrier gas. A temperature gradient of 50 degrees Celsius (° C.) to 250° C. at 30° C. increase per minute (min) was used. Retention times (in minutes, min) for various chemicals of interest included: N,N-Dimethyl-1-Dodecaneamine (8.08 min); N,N-Dimethyl-1-Tetradecaneamine (8.85 min); N,N-Dimethyl-1-Hexadecane-amine (9.90 min); N,N-Dimethyl-1-Octadecaneamine (10.26 min) and N-Methyl,N-Benzyl)-1-Tetradecaneamine (11.40 min).
The procedure outlined in Example 2 was used to produce the sand/amine mixture except that 519 mg of the amine, 10 gr of Pentane. and 60.062 gr of sand from the Oa and Ob layers were used. 29.065 gr of this sand/amine mixture was added to 100 ml of brine #2 (Table 3) to create the sand/amine/brine mixture. […] 0.1 ml of 10 weight percent (wt %) nitric acid in water was added to this solution, and the pH and the amine concentration were measured again.

## CCCCCCCCCCCCN(C)C [N N-Dimethyl-1-Dodecanamine]
[1]
  pH of complete ionization and solubilization of the amine in the water: < 6.0
[2]
  pH of complete ionization and solubilization in the water of the amine: < 6.7
[3]
  pH of complete ionization and solubilization in the water of the amine: < 6.7
